# Source: patent publication US8293215B2, “Flavour modulating derivative of a carboxylic acid and a purine, pyrimidine, nucleoside, or nucleotide” (Givaudan Nederland Services B.V., priority 2006, dated 2012)
# Key:
# sensory panel [1] = test: tomato soups (10 g powder in 100 ml hot water) tasted and evaluated by a sensory panel; assay type: in vivo; details: for perceived saltiness versus product A (control) / taste description: 50% reduced salt
# Method: [table] 10 Gram of each composition was mixed with 100 ml hot water to obtain tomato soups. The different soups were tasted and evaluated by a sensory panel.
# sensory panel [2] = test: sweetened 0% fat red fruit yoghurts tasted and evaluated by a sensory panel; assay type: in vivo
# Method: Three yoghurts were prepared according to the recipe in table 2. [table] All products were tasted and evaluated by a sensory panel.
# [3] = tested on: professional sensory panel; test: aqueous solutions in 0.5% salt and 0.05% MSG tasted by a professional sensory panel; assay type: in vivo
# Method: Six aqueous solutions were prepared: A. 0.5% salt and 0.05% MSG The solutions were tasted by a professional sensory panel. Three aqueous solutions were prepared: A. 0.5% salt and 0.05% MSG The solutions were tasted by a professional sensory panel. Solution A was described as: “salty”. […] Three aqueous solutions were prepared: A. 0.5% salt and 0.05% MSG The solutions were tasted by a professional sensory panel. Solution A was described as: “salty” and “umami”.
# [4] = cited from earlier work; for taste: as a dry powder and as an alcoholic or aqueous solution; for pungency: compared with capsaicin
# [5] = product C: 0.005 mg per 100 g tomato soup powder
# [6] = Yoghurt B: 0.003 microgram per 100 g yoghurt
# [7] = 0.1 ppt in 0.5% salt and 0.05% MSG (Example 4, solution C)
# [8] = 1 ppb in 0.5% salt and 0.05% MSG (Example 3, solution E)
# [9] = 10 ppt in 0.5% salt and 0.05% MSG (Example 4, solution D)
# [10] = 30 ppb in 0.5% salt and 0.05% MSG (Example 3, solution F)
# [11] = product D: 0.3 mg per 100 g tomato soup powder
# [12] = Yoghurt C: 0.15 microgram per 100 g yoghurt
molecule,measurement,setting,value
"CC(=O)Nc1nc2c(ncn2[C@@H]2O[C@H](COP(=O)(O)O)[C@@H](O)[C@H]2O)c(=O)[nH]1 [acetyl-GMP, N-acetyl-GMP]",preference versus product B (50% reduced salt),sensory panel [1]; [5],clearly preferred over product B
same,perceived saltiness versus product A (control),sensory panel [1]; [5],comparable to that of product A
same,taste description,sensory panel [1]; [5],"“more taste”, “more impact”, “more kokumi”, “long lasting” and “salivating”"
same,preference versus product A (yoghurt without modulator),sensory panel [2]; [6],clearly preferred over product A
same,strength compared with product C (0.15 microgram lactoyl-GMP per 100 g),sensory panel [2]; [6],comparable
same,taste description,sensory panel [2]; [6],"sweet, fuller, more natural berry-like, fruity and more balanced flavour"
same,share of the panel that found this detectable,[3]; [7],40%
same,taste description,[3]; [7],"“sweet”, “umami”"
same,taste description,[3]; [8],"“salivating”, “salty”"
same,taste strength compared with solution D (0.6 ppb lactoyl-GMP),[3]; [8],stronger than D
same,taste description,"[3]; 1 ppt in 0.5% salt and 0.05% MSG (Example 8, solution C)","“sweet”, “umami”"
same,share of the panel that found this detectable,[3]; [9],100%
same,strength of the taste compared with solution B (0.6 ppb lactoyl-GMP),[3]; [9],comparable
same,taste description,[3]; [9],"“sweet”, “umami”"
same,taste description,[3]; [10],"“salivating”, “salty”"
same,taste strength compared with solution E (1 ppb acetyl-GMP),[3]; [10],stronger than E
COc1cc(CNC(N)=S)ccc1O [vanillylthiourea],taste,[4],tasteless
o-tolylvanillylthiourea,pungency,[4],property of pungency but to a lesser degree than capsaicin
"Nc1nc2c(ncn2[C@@H]2O[C@H](COP(=O)(O)O)[C@@H](O)[C@H]2O)c(=O)[nH]1 [GMP, guanosine 5′-monophosphate, reference compound]",taste description,"[3]; 1 ppm in 0.5% salt and 0.05% MSG (Example 3, solution B)","“sweet”, “lingering umami”"
phenylvanillylthiourea,taste,[4],tasteless
same,pungency,[4],property of pungency but to a lesser degree than capsaicin
COc1cc(CNC(N)=O)ccc1O [Vanillylurea],taste,[4],tasteless
"CC(O)C(=O)Nc1nc2c(ncn2[C@@H]2O[C@H](COP(=O)(O)O)[C@@H](O)[C@H]2O)c(=O)[nH]1 (stereo partly drawn) [lactoyl-GMP, reference compound]",preference versus product B (50% reduced salt),sensory panel [1]; [11],clearly preferred over product B
same,perceived saltiness versus product A (control),sensory panel [1]; [11],comparable to that of product A
same,taste description,sensory panel [1]; [11],"“more taste”, “more impact”, “more kokumi”, “long lasting” and “salivating”"
same,preference versus product A (yoghurt without modulator),sensory panel [2]; [12],clearly preferred over product A
same,taste description,sensory panel [2]; [12],"sweet, fuller, more natural berry-like, fruity and more balanced flavour"
same,taste description,[3]; 0.6 ppb in 0.5% salt and 0.05% MSG,"“sweet”, “lingering umami”, “more salivating”"
same,taste strength compared with solution C (0.2 ppm process flavour containing 0.3% lactoyl-GMP),"[3]; 0.6 ppb in 0.5% salt and 0.05% MSG (Example 3, solution D)",stronger than C
p-tolylvanillylthiourea,pungency,[4],property of pungency but to a lesser degree than capsaicin
